Measured values from patent US20230047788A1, “COMPOSITIONS COMPRISING 5-CHOLESTEN-3, 25-DIOL, 3-SULFATE (25HC3S) OR PHARMACEUTICALLY ACCEPTABLE SALT THEREOF AND AT LEAST ONE CYCLIC OLIGOSACCHARIDE” (Virginia Commonwealth University, priority 2016, published 2023).

Assay: Effect of phosphate and borate buffers on chemical stability (% remaining, impurity profile), osmolality, pH and appearance of 25HC3S 30 mg/mL in 250 mg/mL HPBCD at 80°C and 60°C
Assay type: physicochemical
Protocol: A total of six 25HC3S formulations at 30 mg/mL in 250 mg/mL of 2-hydroxypropyl beta cyclodextrin (HPBCD) containing 10, 20, 50 and 100 mM phosphate buffers at pH 7.5 to 8.1 and 10 and 50 mM borate buffers at pH 9.4 were prepared for the stability study. The chemical stability (measured as % remaining of 25HC3S) and physical stability (osmolality, pH and appearance) of the formulations were monitored under accelerated conditions for up to 7 days at 80° C. and up to 29 days at 60° C.
Two stock solutions of phosphate buffer at 100 and 200 mM at pH 7.4 and 7.3, respectively and one borate buffer at 100 mM at pH 9.3 were prepared (Tables 22A and 22B) and used for 250 mg/mL HPBCD vehicles preparation (Table 23).
Approximately 1200 mg each of 25HC3S was weighed into 40 mL volumetric flasks and diluted to volume with the six HPBCD vehicles containing 10-100 mM phosphate buffers or 10 and 50 mM borate buffers, respectively (Table 24). The final concentration of 25HC3S was 30 mg/mL (wt/volume, without adjusting for API purity). Aliquots of 2 mL of each formulation were filled into 2 mL glass vials, stoppered and sealed for stability sample set-up at 60° C. and 80° C. to study the effect of phosphate buffer (pH 7.5-8.1) and borate buffer (pH 9.4) at various buffer concentrations on the stability of the HPBCD formulations (Table 26).
A 0.5 mL of sample solution was transferred to a 25 mL volumetric flask and QS'ed with methanol/water=95/5 for 25HC3S concentration determination by HPLC. The % remaining of 25HC3S was calculated as follows: […]

[1] = 60° C., day 0, Phosphate 100 mM
[2] = 60° C., day 29, Phosphate 10 mM
[3] = 60° C., day 29, Phosphate 20 mM
[4] = 60° C., day 29, Phosphate 50 mM
[5] = 60° C., day 29, Phosphate 100 mM

## C[C@H](CCCC(C)(C)O)[C@H]1CC[C@H]2[C@@H]3CC=C4C[C@@H](OS(=O)(=O)[O-])CC[C@]4(C)[C@H]3CC[C@]12C.[Na+] [25HC3S, 5-cholesten-3, 25-diol, 3-sulfate]
60° C., day 0, Borate 50 mM
  pH: 9.40
60° C., day 0, Phosphate 10 mM
  25HC3S: 28.45 mg/mL
  % Peak Area 25-Hydroxy Cholesterol at RRT = 3.67: 0.0 % Peak Area
  % Peak Area 25HC3S: 99.8 % Peak Area
  % Peak Area Major Thermal Degradant at RRT = 2.64: 0.3 % Peak Area
  % Remaining of 25HC3S: 100.0%
  Osmolality: 273 mmol/kg
  pH: 8.09
60° C., day 0, Phosphate 20 mM
  25HC3S: 28.63 mg/mL
  % Peak Area 25-Hydroxy Cholesterol at RRT = 3.67: 0.0 % Peak Area
  % Peak Area 25HC3S: 99.7 % Peak Area
  % Peak Area Major Thermal Degradant at RRT = 2.64: 0.3 % Peak Area
  % Remaining of 25HC3S: 100.0%
  Osmolality: 311 mmol/kg
  pH: 7.81
60° C., day 0, Phosphate 50 mM
  25HC3S: 28.50 mg/mL
  % Peak Area 25-Hydroxy Cholesterol at RRT = 3.67: 0.0 % Peak Area
  % Peak Area 25HC3S: 99.7 % Peak Area
  % Peak Area Major Thermal Degradant at RRT = 2.64: 0.3 % Peak Area
  % Remaining of 25HC3S: 100.0%
  Osmolality: 415 mmol/kg
  pH: 7.63
[1]
  25HC3S: 28.58 mg/mL
  % Peak Area 25-Hydroxy Cholesterol at RRT = 3.67: 0.0 % Peak Area
  % Peak Area 25HC3S: 99.8 % Peak Area
  % Peak Area Major Thermal Degradant at RRT = 2.64: 0.3 % Peak Area
  % Remaining of 25HC3S: 100.0%
  Osmolality: 573 mmol/kg
  pH: 7.53
60° C., day 29, Borate 10 mM
  25HC3S: 26.55 mg/mL
  % Peak Area 25-Hydroxy Cholesterol at RRT = 3.67: 1.3 % Peak Area
  % Peak Area 25HC3S: 98.5 % Peak Area
  % Peak Area Major Thermal Degradant at RRT = 2.64: 0.3 % Peak Area
  % Remaining of 25HC3S: 92.9%
  Osmolality: 326 mmol/kg
  pH: 8.90
60° C., day 29, Borate 50 mM
  25HC3S: 27.03 mg/mL
  % Peak Area 25-Hydroxy Cholesterol at RRT = 3.67: 1.3 % Peak Area
  % Peak Area 25HC3S: 98.5 % Peak Area
  % Peak Area Major Thermal Degradant at RRT = 2.64: 0.3 % Peak Area
  % Remaining of 25HC3S: 94.8%
  Osmolality: 541 mmol/kg
  pH: 9.19
[2]
  25HC3S: 26.65 mg/mL
  % Peak Area 25-Hydroxy Cholesterol at RRT = 3.67: 1.4 % Peak Area
  % Peak Area 25HC3S: 98.3 % Peak Area
  % Peak Area Major Thermal Degradant at RRT = 2.64: 0.3 % Peak Area
  % Remaining of 25HC3S: 93.7%
  Osmolality: 281 mmol/kg
  pH: 7.04
[3]
  25HC3S: 26.78 mg/mL
  % Peak Area 25-Hydroxy Cholesterol at RRT = 3.67: 1.4 % Peak Area
  % Peak Area 25HC3S: 98.3 % Peak Area
  % Peak Area Major Thermal Degradant at RRT = 2.64: 0.3 % Peak Area
  % Remaining of 25HC3S: 93.5%
  Osmolality: 322 mmol/kg
  pH: 7.17
[4]
  25HC3S: 26.63 mg/mL
  % Peak Area 25-Hydroxy Cholesterol at RRT = 3.67: 1.4 % Peak Area
  % Peak Area 25HC3S: 98.3 % Peak Area
  % Peak Area Major Thermal Degradant at RRT = 2.64: 0.3 % Peak Area
  % Remaining of 25HC3S: 93.4%
  Osmolality: 430 mmol/kg
  pH: 7.28
[5]
  25HC3S: 26.63 mg/mL
  % Peak Area 25-Hydroxy Cholesterol at RRT = 3.67: 1.4 % Peak Area
  % Peak Area 25HC3S: 98.4 % Peak Area
  % Peak Area Major Thermal Degradant at RRT = 2.64: 0.3 % Peak Area
  % Remaining of 25HC3S: 93.2%
  Osmolality: 592 mmol/kg
  pH: 7.28
60° C., days 0 and 29, Borate 10 and 50 mM, merged cell wrapped over r16-r18: Clear colorless solution
  Appearance: Clear
60° C., days 0 and 29, Phosphate 10, 20, 50 and 100 mM, merged cell wrapped over r8-r10: Clear colorless solution
  Appearance: Clear
80° C., day 0, Borate 10 mM
  % Peak Area 25-Hydroxy Cholesterol at RRT = 3.67: 0.0 % Peak Area
  % Peak Area 25HC3S: 99.7 % Peak Area
  % Peak Area Major Thermal Degradant at RRT = 2.64: 0.3 % Peak Area
80° C., day 0, Borate 50 mM
  % Peak Area 25-Hydroxy Cholesterol at RRT = 3.67: 0.0 % Peak Area
  % Peak Area 25HC3S: 99.9 % Peak Area
  % Peak Area Major Thermal Degradant at RRT = 2.64: 0.2 % Peak Area
80° C., day 0, Phosphate 10 mM
  % Peak Area 25-Hydroxy Cholesterol at RRT = 3.67: 0.0 % Peak Area
  % Peak Area 25HC3S: 99.8 % Peak Area
